These results are taken from patent US8513306B2, “Enhancement of urogenital function” (priority 2005, dated 2013).

The conditions of series [1]: in vivo; cited from earlier work.
For series [2], the system named is younger subject two. As to the kind of experiment: Trial: small amounts of amantadine with creatine, with or without a PDE5 inhibitor ED drug. It counts as in vivo, human. The following applies: for Results in conjugal sexual activity: ED drugs in low doses over the past four years; for Effectiveness of small dose of the PDE5 inhibitor ED drug alone: VIAGRA about 12.5 mg or LEVITRA about 2.5 mg, normally. As for the experimental part: In a trial, the younger subject two ingested small amounts of amantadine along with about 88 mg of creatine. The small amounts of amantadine were measured by opening a capsule of amantadine and pouring out small amounts. Ten individual administrations used less than one 100 mg capsule of amantadine. Thus, the dose of amantadine was approximately 5 mg to approximately 10 mg.
The subject noted a body weight that varied little from about 78 kg over the past twenty plus years. The subject noted no use of blood pressure or other prescribed medications on a regular basis.

The subject of another series is younger subject one. As to the kind of experiment: Observation of the younger subject on lycopene-containing foods. The class given is in vivo, human. The following applies: on occasion, for one day at a time. From the text: Other exemplary compositions may include lycopene. […] Lycopene is present in tomato products while other foods of interest include certain beans and blue berries. An exemplary method includes administering such a composition. For example, a composition that includes creatine and lycopene may be administered to a subject to treat a urologic disorder. An exemplary method includes administering creatine and lyocpene to treat a urologic disorder.

In another series the test system is patients. Conditions: in vivo; cited from earlier work.
The test system of series [3] is younger subject two. Put plainly: Trial: occasional amantadine for flu prophylaxis, nocturnal urinary symptoms. The following applies: occasional administration of about 100 mg. The class given is in vivo, human. The method, then: A trial involving the younger subject two involved occasional administration of about 100 mg of amantadine for flu prophylaxis.
The test system of series [4] is two male subjects with urinary symptoms. As to the kind of experiment: Additional trials: creatine monohydrate in solution, loading phase and maintenance phase. It counts as in vivo, human. The method, then: […] […] […] The post-loading phase is referred to herein as a maintenance phase. The dose may vary during the maintenance phase; however, it is generally at least 50% less than the dose used in a loading phase.
In these trials, urinary flow-related symptoms were reduced.
However, in various trials, a delay in relief was experienced that corresponded to the dose size where a larger than required dose would actually delay relief (e.g. beyond 24 hours to as much as 72 hours). […] Such trials indicate that a dosage range exists for relief of symptoms and for timing of the relief.

In series [5] the test system is varsity football and track athletes. Conditions: 3 g per day without prior loading; cited from earlier work.
Series [6] relates to subject one with nocturia and diagnosed moderate prostate enlargement. As to the kind of experiment: Trial: single dose of creatine monohydrate powder in solution prior to sleep. Conditions: person two. It counts as in vivo, human. The method, then:
A trial provided creatine monohydrate as a powder (about 100% creatine monohydrate) and administered a single dose (approximately 0.1 to 0.2 g) of the creatine monohydrate powder in a solution (about 0.09 to 0.17 g creatine) approximately 0.5 to 3 hours prior to sleep. Urinary flow-related symptoms were reduced for the immediate sleep period and for sleep periods during the following 48 hours.
The subject weighed approximately 80 kg (about 175 lbs). Thus, the dosage was about 0.9 mg of creatine per kg of body weight. Range may vary by individual and prior consumption of a creatine compound. A general range for CSUE may be from about 0.4 mg creatine monohydrate to about 4.0 mg creatine monohydrate per kg body weight per day (e.g., about 32 mg to about 320 mg per day for a subject weighing about 80 kg). As already mentioned, the various trials used creatine monohydrate powder (about 100%) in solution. Thus, in terms of creatine content, the general range for CSUE may be from about 0.35 mg creatine per kg body weight per day (e.g., about 0.4*(3.124.4/5) mg) to about 3.5 mg creatine per kg body weight per day (e.g., 4.0*(3.124.4/5) mg). While dose may vary from patient to patient, the dose is typically less than the dose for CSR.

The mark [7] stands for this setting: single dose approx 0.1 to 0.2 g in solution prior to sleep.

`C[C@]12CC[C@H](OS(=O)(=O)O)CC1=CC[C@@H]1[C@@H]2CC[C@]2(C)C(=O)CC[C@@H]12` [DHEA-S, DHEA-sulfate]: the “Levels of testosterone and androstenedione” value in series [1] was “increased levels”.

For the compound `CCCc1nc(C)c2c(=O)nc(-c3cc(S(=O)(=O)N4CCN(CC)CC4)ccc3OCC)[nH]n12` [LEVITRA®, 4-[2-ethoxy-5-(4-ethylpiperazin-1-yl)sulfonyl-phenyl]-9-methyl-7-propyl-3,5,6,8-tetrazabicyclo[4.3.0]nona-3,7,9-trien-2-one], in the series on younger subject two [2], the “Results in conjugal sexual activity” value is on record as “good results” and the “Effectiveness of small dose of the PDE5 inhibitor ED drug alone” value is listed as “somewhat marginally effective”.

In the case of `CC(C)=CCC/C(C)=C/C=C/C(C)=C/C=C/C(C)=C/C=C/C=C(C)/C=C/C=C(C)/C=C/C=C(\C)CCC=C(C)C` [Lycopene, lycopene], the “Nocturnal urine stream slowing” value with younger subject one is listed as “a lack of nocturnal urine stream slowing”.

With `CC12CC3CC(C)(C1)CC(N)(C3)C2` [Memantine, 1-amino-3,5-dimethyl-adamantane], the Tolerability entry with patients is reported as “generally well-tolerated”.

As to `CCCc1nn(C)c2c(=O)[nH]c(-c3cc(S(=O)(=O)N4CCN(C)CC4)ccc3OCC)nc12.O=C(O)CC(O)(CC(=O)O)C(=O)O` [VIAGRA®, 1-[4-ethoxy-3-(6,7-dihydro-1-methyl-7-oxo-3-propyl-1H-pyrazolo[4,3-d]pyrimidin-5-yl)phenylsulfonyl]-4-methylpiperazine citrate], in the series with younger subject two [2], the “Results in conjugal sexual activity” value is reported as “good results” and the “Effectiveness of small dose of the PDE5 inhibitor ED drug alone” value was “somewhat marginally effective”.

`NC12CC3CC(CC(C3)C1)C2` [amantadine, adamantan-1-amine]: the “Effect compared with DHEA taken to enhance libido (readiness for and enjoyment of orgasm)” value with younger subject two [2] (about 5 mg of amantadine) is on record as “similarly beneficial but distinct effect”. Also, in the series on younger subject two [2] (subject's observation), the “Effect relative to that of the PDE5 inhibitor ED drugs” value is given as “additive”. Besides, in the series on younger subject two [3], the Nocturnal urinary symptoms result is listed as “reduction in nocturnal urinary symptoms”.

Consider `CN(CC(=O)O)C(=N)N.O` [creatine monohydrate], for which, in series [4] (both subjects, loading phase 0.1 to 1.0 g, then maintenance about 50 to 150 mg every other day), the “Symptoms (urinary)” value was “symptoms were relieved”. The “Initiation of urine stream at night” value in series [4] (doses larger than about 0.25 g in the maintenance phase, younger subject) is reported as “more difficult until 24 hours to 48 hours later”. Also, in series [4] (doses of greater than 1 g after the loading phase, both subjects), the Urinary symptom reduction result was “less urinary symptom reduction”. The Ergogenic effect result in series [5] was “did not observe ergogenic effect”. Moreover, the Urinary flow-related symptoms entry in series [6] (single dose approx 0.1 to 0.2 g in solution 0.5 to 3 hours prior to sleep, immediate sleep period and sleep periods of following 48 hours) was “reduced”. Moreover, in series [6] (setting [7]), the Nocturnal erections result is on record as “increase in nocturnal erections” and the “Testicular blood flow as evidenced by palpable scrotal content enlargement” value is “increase in testicular blood flow”.
